# Ends that are not written are not given here.
# How the values were obtained:
# [1] = test system: B. longum strain CNCM I-2618 (NCC 2705); assay: Culture density (Optical Density at 600 nm) of B. longum NCC 2705 grown on carbohydrates; type: cell-based, Bifidobacterium longum subsp longum; conditions: grown on different carbohydrates for 24 h and 48 h (FIG. 2)
# Description: B. longum strain CNCM I-2618 (NCC 2705) was grown in Biolector (growth conditions-anaerobic, 37° C.) in MRS+5 mM L-cysteine (MRSc) base without sugar, to which different carbohydrates were added. 48-well microtiter plate with pH sensor and dissolved oxygen (DO) sensor were used to culture the strains in Biolector […]-labs Aachen, Germany). It was continuously shaken to prevent bacteria aggregation for 24 h and 48 h. Cultures were harvested by centrifugation and supernatant was removed. Pellet was resuspended in PBS supplemented with halt protease inhibitor (Sigma) and lysed using glassbeads. Lysate containing both soluble and insoluble material was then collected. Total protein content was measured using Pierce BCA kit (Thermofisher) and serpin protein concentration was determined using ELISA.
# [2] = test system: B. longum strain CNCM I-2618 (NCC 2705); assay: Serpin protein levels (ELISA) in B. longum NCC 2705 grown on different carbohydrates; type: cell-based, Bifidobacterium longum subsp longum
# Description: B. longum strain CNCM I-2618 (NCC 2705) was grown in Biolector (growth conditions—anaerobic, 37° C.) in MRS+5 mM L-cysteine (MRSc) base without sugar, to which different carbohydrates were added.
# 48-well microtiter plate with pH sensor and dissolved oxygen (DO) sensor were used to culture the strains in Biolector (m2p-labs Aachen, Germany). It was continuously shaken to prevent bacteria aggregation for 24 h and 48 h. Cultures were harvested by centrifugation and supernatant was removed. Pellet was resuspended in PBS supplemented with halt protease inhibitor (Sigma) and lysed using glassbeads. Lysate containing both soluble and insoluble material was then collected. Total protein content was measured using Pierce BCA kit (Thermofisher) and serpin protein concentration was determined using ELISA.
# (§1) B. longum NCC 2705 was cultured in Biolector (as described in Example 1) in a base of MRSc without sugar, with the addition of different di-saccharides and tri-saccharides, at concentrations of 0.5 wt % and 1 wt %. Cultures were collected after 48 h of growth and analyzed for total & serpin protein levels (as described in Example 1).
# as §1, with “short chain fructo-oligosaccharides (FOS),” for “di-saccharides and tri-saccharides,”, “of” for “of 0.5 wt % and”, “16” for “48”
# The FOS used were (i) NutraFlora P95 FOs from Ingredion Inc, USA., a short-chain FOS with Glucose-Fructose (GF) chains with DP from 3 to 5 and comprising GF2, GF3 and GF4 molecules; (ii) Orafti P95 from Beneo, a short-chain FOS with DP from 2 to 8.
# transglutaminase 2 (TG2) = target: T1, transglutaminase 2 (TG2) (Homo sapiens, UniProt P21980); conditions: in-vitro, addition of elafin; cited from earlier work
# T1 sequence (P21980 1-687): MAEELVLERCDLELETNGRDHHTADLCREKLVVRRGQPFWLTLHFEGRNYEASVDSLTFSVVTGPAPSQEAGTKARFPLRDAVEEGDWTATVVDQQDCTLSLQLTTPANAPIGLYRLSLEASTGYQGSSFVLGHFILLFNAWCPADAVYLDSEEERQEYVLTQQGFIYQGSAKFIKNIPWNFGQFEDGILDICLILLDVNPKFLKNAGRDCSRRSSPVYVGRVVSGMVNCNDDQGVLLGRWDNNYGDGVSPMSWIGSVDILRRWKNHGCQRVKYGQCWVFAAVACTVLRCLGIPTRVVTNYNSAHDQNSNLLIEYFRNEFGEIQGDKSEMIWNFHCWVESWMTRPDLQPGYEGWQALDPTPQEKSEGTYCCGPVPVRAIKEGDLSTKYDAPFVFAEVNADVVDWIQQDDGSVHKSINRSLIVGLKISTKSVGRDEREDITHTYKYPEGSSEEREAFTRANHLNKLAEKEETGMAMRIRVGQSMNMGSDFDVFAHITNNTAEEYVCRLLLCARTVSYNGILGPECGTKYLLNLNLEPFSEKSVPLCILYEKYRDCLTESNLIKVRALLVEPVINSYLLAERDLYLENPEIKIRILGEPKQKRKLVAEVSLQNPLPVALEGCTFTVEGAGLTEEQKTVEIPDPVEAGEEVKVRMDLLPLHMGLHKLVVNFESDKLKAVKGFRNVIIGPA
# [3] = test system: various forms of elastases and proteinase; conditions: cited from earlier work
compound,measurement,setting,value
"O=C(CO)[C@@H](O)[C@H](O)[C@H](O)CO [fructose, reference compound]","growth (culture density, Optical Density at 600 nm)",[1],retarded growth
same,serpin protein levels,"[2]; grown for 48 h on different carbohydrates, compared to all other sugars tested (FIG. 1)",increase B. longum NCC 2705 serpin protein levels
same,serpin induction,[2]; grown on different carbohydrates for 24 h and 48 h (FIG. 2),induce serpin in B. longum NCC 2705 to a higher magnitude than galactose
OC[C@H]1O[C@H](OC[C@H]2O[C@H](O[C@]3(CO)O[C@H](CO)[C@@H](O)[C@@H]3O)[C@H](O)[C@@H](O)[C@@H]2O)[C@H](O)[C@@H](O)[C@H]1O [raffinose],serpin levels,"[2]; 0.5 wt %, 48 h of growth, MRSc base without sugar (FIG. 3), effect not obtained at 1 wt %",significant increase in serpin levels
OC[C@H]1O[C@@](CO)(O[C@H]2O[C@H](CO)[C@@H](O)[C@H](O)[C@H]2O)[C@@H](O)[C@@H]1O [saccharose],serpin production,"[2]; 1 wt %, 48 h of growth, MRSc base without sugar (FIG. 3)",induce strongly serpin production
"elafin: human serine protease inhibitor (AQEPVKGPVSTKPGSCPIILIRCAMLNPPNRCLKDTDCPGIKKCCEGSCGMACFVPQ; ends and bridges not checked; cysteine pairing not given here; UniProt P19957 61-117, looked up)",inhibition of transglutaminase 2 (TG2),transglutaminase 2 (TG2),moderately inhibits transglutaminase 2 (TG2)
same,inhibitory capacity against elastases and proteinase,[3],potent inhibitory capacity

# From patent publication US12644094B2, “Serpin production” (SOCIETE DES PRODUITS NESTLE S.A., priority 2019, dated 2026)
